Measurements as given in ChEMBL document CHEMBL5696442, “Discovery of type II inhibitors of TGFβ-activated kinase 1 (TAK1) and mitogen-activated protein kinase kinase kinase kinase 2 (MAP4K2)” (J Med Chem, 2015).
Active and inactive are the calls of the source. The calls are words filed in the database; no cut-off is given here.

Assays:
[1] = target: T1, Mitogen-activated protein kinase kinase kinase kinase 2 (Homo sapiens) (UniProt Q12851); assay: Inhibition of MAP4K2 (GCK) Lys1 labeling site in human Huh-7 cells at 1 uM by KiNativ Profiling analysis relative to control; format: cell-based
T1 sequence (whole entry): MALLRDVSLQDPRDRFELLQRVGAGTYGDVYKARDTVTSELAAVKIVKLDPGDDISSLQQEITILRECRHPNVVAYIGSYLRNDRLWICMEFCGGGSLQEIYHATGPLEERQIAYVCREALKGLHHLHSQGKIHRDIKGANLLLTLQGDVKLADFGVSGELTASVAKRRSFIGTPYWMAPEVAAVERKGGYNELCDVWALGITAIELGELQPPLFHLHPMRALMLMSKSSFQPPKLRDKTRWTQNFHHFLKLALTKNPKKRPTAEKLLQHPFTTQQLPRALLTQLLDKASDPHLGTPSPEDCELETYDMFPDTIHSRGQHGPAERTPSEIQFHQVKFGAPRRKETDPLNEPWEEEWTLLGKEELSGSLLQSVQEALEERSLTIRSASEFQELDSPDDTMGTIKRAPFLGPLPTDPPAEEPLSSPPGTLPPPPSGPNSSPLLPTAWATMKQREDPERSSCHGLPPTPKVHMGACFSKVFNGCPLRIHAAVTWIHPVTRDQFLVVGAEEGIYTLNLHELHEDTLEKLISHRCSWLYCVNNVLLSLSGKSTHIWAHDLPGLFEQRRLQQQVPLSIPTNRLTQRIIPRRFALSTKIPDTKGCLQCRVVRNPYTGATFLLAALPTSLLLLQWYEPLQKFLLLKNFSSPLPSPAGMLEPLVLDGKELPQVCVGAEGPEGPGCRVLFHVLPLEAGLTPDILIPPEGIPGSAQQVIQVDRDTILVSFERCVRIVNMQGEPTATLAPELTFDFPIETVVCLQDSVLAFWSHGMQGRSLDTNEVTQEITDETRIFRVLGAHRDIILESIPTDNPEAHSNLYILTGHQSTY

[2] = Inhibition of p70S6K ATP Loop labeling site in human Huh-7 cells at 1 uM by KiNativ Profiling analysis relative to control; conditions: condition cancer
[3] = target: Interleukin-1 receptor-associated kinase 1 (Homo sapiens) (UniProt P51617); assay: Inhibition of IRAK1 Lys2 labeling site in human Huh-7 cell lysate at 1 uM by KiNativ Profiling analysis relative to control; format: subcellular
[4] = target: Serine/threonine-protein kinase Nek6 (Homo sapiens) (UniProt Q9HC98); assay: Inhibition of NEK6 Lys2 labeling site harbouring VMHRDIKPANVFITATGVVK in human Huh-7 cells at 1 uM by KiNativ Profiling analysis relative to control; format: cell-based
[5] = target: Serine/threonine-protein kinase MARK2 (Homo sapiens) (UniProt Q7KZI7); assay: Inhibition of MARK2 Lys2 labeling site harbouring FIVHRDLKAENLLLDADMNIK in human A-375 cells at 0.5 uM by KiNativ Profiling analysis relative to control; format: cell-based
[6] = target: Non-receptor tyrosine-protein kinase TYK2 (Homo sapiens) (UniProt P29597); assay: Inhibition of TYK2 JH1catalytic domain (unknown origin) at 1 uM by Ambit Kinomescan binding assay relative to control
[7] = target: Glycogen synthase kinase-3 beta (Homo sapiens) (UniProt P49841); assay: Inhibition of GSK3B Lys2 labeling site in human A-375 cells at 0.05 uM by KiNativ Profiling analysis relative to control; format: cell-based
[8] = target: T2, Dual specificity mitogen-activated protein kinase kinase 6 (Homo sapiens) (UniProt P52564); assay: Inhibition of MAP2K6 Lys2 labeling site in human A-375 cells at 0.5 uM by KiNativ Profiling analysis relative to control; format: cell-based
T2 sequence (whole entry): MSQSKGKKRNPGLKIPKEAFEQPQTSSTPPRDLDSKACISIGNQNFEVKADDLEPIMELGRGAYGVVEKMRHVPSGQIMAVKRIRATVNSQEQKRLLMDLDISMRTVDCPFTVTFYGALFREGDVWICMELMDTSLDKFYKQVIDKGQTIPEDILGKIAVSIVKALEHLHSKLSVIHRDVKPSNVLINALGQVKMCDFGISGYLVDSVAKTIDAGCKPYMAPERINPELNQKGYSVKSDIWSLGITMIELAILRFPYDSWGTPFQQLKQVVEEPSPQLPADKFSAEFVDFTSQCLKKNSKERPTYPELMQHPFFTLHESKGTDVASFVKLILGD

[9] = target: Serine/threonine-protein kinase 32A (Homo sapiens) (UniProt Q8WU08); assay: Inhibition of YANK1 (unknown origin) at 1 uM by Ambit Kinomescan binding assay relative to control; values are per cent of control
[10] = target: Tyrosine-protein kinase receptor Tie-1 (Homo sapiens) (UniProt P35590); assay: Inhibition of TIE1 (unknown origin) at 1 uM by Ambit Kinomescan binding assay relative to control
[11] = target: Mitogen-activated protein kinase 14 (Homo sapiens, UniProt Q16539); assay: Inhibition of p38 alpha (unknown origin) at 1 uM by Ambit Kinomescan binding assay relative to control; values are per cent of control
[12] = target: Serine/threonine-protein kinase 4 (Homo sapiens) (UniProt Q13043); assay: Inhibition of MST1 (unknown origin) at 1 uM by Ambit Kinomescan binding assay relative to control
[13] = target: Angiopoietin-1 receptor (Homo sapiens) (UniProt Q02763); assay: Inhibition of TIE2 (unknown origin) at 1 uM by Ambit Kinomescan binding assay relative to control
[14] = system: Tyrosine-protein kinase ABL1 (Homo sapiens), P00519 [T315I]; assay: Inhibition of nonphosphorylated ABL1 T315I mutant (unknown origin) at 1 uM by Ambit Kinomescan binding assay relative to control
[15] = target: Cyclin-dependent kinase 1 (Homo sapiens) (UniProt P06493); assay: Inhibition of CDC2 Lys2 labeling site harbouring VLHRDLKPQNLLIDDKGTIK in human A-375 cells at 0.5 uM by KiNativ Profiling analysis relative to control; format: cell-based
[16] = target: eIF-2-alpha kinase GCN2 (Homo sapiens) (UniProt Q9P2K8); assay: Inhibition of GCN2 domain2 Lys1 labeling site in human A-375 cells at 0.05 uM by KiNativ Profiling analysis relative to control; format: cell-based
[17] = target: Casein kinase I isoform epsilon (Homo sapiens) (UniProt P49674); assay: Inhibition of CSNK1E (unknown origin) at 10 uM by Ambit Kinomescan binding assay
[18] = target: Serine/threonine-protein kinase MRCK alpha (Homo sapiens) (UniProt Q5VT25); assay: Inhibition of MRCKA (unknown origin) at 10 uM by Ambit Kinomescan binding assay
[19] = target: Ankyrin repeat and protein kinase domain-containing protein 1 (Homo sapiens) (UniProt Q8NFD2); assay: Inhibition of ANKK1 (unknown origin) at 10 uM by Ambit Kinomescan binding assay relative to control
[20] = target: Casein kinase I isoform gamma-3 (Homo sapiens) (UniProt Q9Y6M4); assay: Inhibition of CSNK1G3 (unknown origin) at 10 uM by Ambit Kinomescan binding assay
Sequence of Casein kinase I isoform gamma-3 (Homo sapiens) (Q9Y6M4 whole entry, looked up, canonical isoform): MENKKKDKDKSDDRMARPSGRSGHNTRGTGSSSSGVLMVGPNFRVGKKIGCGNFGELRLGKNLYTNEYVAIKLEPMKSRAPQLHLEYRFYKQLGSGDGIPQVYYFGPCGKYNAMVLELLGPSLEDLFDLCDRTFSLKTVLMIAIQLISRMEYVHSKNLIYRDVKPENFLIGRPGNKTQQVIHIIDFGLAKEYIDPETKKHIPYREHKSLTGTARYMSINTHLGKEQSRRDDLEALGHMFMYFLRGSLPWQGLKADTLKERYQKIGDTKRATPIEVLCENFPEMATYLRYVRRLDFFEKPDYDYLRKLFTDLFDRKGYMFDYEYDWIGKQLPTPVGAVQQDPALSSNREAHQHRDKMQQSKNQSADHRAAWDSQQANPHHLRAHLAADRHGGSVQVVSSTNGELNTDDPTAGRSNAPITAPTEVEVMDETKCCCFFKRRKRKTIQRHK

Sequence of Ankyrin repeat and protein kinase domain-containing protein 1 (Homo sapiens) (Q8NFD2 whole entry, the tested form may be a part, canonical isoform): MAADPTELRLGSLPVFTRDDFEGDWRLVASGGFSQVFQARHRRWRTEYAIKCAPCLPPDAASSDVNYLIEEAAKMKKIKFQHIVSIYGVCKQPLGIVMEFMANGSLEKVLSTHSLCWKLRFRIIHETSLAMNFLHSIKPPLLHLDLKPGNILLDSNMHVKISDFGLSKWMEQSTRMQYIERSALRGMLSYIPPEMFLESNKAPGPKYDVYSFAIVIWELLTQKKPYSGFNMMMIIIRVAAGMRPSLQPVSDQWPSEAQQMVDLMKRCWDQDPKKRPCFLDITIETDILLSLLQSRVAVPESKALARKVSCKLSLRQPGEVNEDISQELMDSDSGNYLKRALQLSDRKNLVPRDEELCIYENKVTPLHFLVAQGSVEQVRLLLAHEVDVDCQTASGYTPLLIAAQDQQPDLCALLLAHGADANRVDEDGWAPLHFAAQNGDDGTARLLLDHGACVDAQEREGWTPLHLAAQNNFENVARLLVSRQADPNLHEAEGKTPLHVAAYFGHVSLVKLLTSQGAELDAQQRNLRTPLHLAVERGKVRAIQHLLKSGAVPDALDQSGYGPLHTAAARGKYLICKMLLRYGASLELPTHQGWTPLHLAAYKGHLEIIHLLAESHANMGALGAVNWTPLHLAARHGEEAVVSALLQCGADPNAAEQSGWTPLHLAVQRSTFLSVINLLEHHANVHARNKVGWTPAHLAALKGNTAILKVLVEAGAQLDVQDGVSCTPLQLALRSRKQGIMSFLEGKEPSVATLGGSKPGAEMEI
Sequence of Serine/threonine-protein kinase 32A (Homo sapiens) (Q8WU08 whole entry): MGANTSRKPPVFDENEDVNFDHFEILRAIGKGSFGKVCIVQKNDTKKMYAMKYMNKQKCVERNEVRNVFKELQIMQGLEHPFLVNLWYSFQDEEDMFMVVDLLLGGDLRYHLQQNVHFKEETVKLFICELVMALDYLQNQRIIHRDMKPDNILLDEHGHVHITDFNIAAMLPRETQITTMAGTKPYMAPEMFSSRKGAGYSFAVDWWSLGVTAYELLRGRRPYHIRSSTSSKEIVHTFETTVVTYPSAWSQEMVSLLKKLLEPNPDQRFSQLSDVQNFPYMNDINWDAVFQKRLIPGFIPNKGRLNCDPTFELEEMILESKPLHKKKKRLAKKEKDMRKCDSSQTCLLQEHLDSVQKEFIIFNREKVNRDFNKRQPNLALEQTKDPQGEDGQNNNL
Sequence of eIF-2-alpha kinase GCN2 (Homo sapiens) (Q9P2K8 whole entry, the tested form may be a part, canonical isoform): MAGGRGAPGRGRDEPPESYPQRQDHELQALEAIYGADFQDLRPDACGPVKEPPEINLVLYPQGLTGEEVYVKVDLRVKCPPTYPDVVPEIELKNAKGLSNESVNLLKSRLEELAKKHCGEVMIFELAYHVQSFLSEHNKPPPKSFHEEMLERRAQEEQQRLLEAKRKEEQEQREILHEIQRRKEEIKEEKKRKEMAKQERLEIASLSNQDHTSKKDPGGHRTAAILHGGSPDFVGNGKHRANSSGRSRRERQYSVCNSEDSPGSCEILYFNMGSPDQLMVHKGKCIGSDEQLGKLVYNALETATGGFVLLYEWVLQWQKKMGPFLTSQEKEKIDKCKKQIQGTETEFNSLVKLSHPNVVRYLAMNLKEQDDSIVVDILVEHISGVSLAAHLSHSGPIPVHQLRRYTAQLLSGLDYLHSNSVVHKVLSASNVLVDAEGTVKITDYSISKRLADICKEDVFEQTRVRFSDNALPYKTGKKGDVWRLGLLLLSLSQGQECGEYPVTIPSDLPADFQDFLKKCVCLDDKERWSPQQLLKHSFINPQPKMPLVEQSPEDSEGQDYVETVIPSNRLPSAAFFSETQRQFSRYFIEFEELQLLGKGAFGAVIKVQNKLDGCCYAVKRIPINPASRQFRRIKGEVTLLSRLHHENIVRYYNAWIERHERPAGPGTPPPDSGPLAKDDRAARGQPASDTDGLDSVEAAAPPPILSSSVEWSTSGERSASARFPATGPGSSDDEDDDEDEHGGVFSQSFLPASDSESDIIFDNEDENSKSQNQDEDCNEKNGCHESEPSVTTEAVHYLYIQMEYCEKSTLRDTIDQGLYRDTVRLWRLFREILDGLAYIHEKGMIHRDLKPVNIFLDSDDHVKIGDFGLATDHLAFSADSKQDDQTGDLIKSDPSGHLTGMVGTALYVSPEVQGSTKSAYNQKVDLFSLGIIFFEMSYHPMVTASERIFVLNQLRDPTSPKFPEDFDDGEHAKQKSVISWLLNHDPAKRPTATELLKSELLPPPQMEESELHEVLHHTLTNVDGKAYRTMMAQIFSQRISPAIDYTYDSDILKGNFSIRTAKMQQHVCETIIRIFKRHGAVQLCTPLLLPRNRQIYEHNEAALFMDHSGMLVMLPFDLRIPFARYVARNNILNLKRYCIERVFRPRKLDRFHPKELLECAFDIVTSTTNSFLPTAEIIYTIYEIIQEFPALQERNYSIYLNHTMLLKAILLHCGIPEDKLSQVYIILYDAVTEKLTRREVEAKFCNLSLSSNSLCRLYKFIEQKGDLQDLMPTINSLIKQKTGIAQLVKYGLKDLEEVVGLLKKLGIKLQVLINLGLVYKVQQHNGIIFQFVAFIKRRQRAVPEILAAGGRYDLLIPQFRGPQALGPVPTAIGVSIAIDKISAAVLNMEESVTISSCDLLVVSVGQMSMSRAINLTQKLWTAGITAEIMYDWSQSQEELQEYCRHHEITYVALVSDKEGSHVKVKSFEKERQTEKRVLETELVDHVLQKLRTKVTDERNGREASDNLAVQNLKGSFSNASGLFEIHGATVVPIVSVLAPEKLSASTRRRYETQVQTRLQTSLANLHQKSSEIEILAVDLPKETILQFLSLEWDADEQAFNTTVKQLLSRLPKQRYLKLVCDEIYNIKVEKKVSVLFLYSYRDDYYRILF
Sequence of Glycogen synthase kinase-3 beta (Homo sapiens) (P49841 whole entry, looked up): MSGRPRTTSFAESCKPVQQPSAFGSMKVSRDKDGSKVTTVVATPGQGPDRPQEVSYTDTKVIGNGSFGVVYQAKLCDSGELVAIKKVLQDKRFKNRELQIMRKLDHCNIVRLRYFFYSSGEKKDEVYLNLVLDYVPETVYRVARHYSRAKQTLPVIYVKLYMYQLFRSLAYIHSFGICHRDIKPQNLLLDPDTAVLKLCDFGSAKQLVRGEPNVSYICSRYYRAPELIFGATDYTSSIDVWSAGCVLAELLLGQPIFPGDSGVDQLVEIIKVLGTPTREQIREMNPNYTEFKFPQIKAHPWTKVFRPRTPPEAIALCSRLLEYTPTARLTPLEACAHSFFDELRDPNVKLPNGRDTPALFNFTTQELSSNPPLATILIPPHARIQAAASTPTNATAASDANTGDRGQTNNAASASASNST
Sequence of Serine/threonine-protein kinase MARK2 (Homo sapiens) (Q7KZI7 whole entry, the tested form may be a part): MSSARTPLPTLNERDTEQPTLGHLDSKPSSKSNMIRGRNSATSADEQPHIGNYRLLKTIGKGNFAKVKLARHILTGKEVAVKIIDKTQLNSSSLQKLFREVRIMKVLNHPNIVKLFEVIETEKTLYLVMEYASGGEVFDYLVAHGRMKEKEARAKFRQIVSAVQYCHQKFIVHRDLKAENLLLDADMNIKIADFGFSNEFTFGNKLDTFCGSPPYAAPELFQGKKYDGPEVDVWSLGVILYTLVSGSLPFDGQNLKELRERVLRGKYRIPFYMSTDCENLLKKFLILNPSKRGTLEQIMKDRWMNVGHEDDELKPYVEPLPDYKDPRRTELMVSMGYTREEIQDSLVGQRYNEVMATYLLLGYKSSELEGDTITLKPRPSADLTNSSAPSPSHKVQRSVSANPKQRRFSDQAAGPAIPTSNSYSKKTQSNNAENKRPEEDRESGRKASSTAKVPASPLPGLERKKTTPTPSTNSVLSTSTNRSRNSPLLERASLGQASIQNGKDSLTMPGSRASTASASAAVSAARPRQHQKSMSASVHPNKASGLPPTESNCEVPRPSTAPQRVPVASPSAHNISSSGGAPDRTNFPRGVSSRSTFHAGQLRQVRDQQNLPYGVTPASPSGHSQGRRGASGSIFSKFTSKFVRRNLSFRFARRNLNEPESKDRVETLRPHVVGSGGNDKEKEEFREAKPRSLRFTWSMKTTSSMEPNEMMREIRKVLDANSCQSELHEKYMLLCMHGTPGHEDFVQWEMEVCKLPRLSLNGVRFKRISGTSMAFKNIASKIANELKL
Sequence of Cyclin-dependent kinase 1 (Homo sapiens) (P06493 whole entry, looked up, the tested form may be a part): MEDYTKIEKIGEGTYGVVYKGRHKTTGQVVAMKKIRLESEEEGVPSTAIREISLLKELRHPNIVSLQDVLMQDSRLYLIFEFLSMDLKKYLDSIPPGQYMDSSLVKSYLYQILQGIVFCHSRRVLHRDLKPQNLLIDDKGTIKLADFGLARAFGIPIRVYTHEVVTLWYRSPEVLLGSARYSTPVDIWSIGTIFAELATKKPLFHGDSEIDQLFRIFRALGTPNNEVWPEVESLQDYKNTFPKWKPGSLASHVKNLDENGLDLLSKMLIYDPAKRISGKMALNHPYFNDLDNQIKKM

For `CNc1cc(Oc2cc(C(=O)Nc3cc(N4CCN(C)CC4)cc(C(F)(F)F)c3)ccc2C)ncn1`, which inhibition [1] is on record?
The inhibition was 88.3%.

And the inhibition at 1 µM [2]?
Its inhibition at 1 µM is -44.2%.

And the inhibition [3]?
Its inhibition is -6.9%.

What about the inhibition [4] of the same molecule?
Its inhibition is 6.9%.

What does the source list for `CCN1CCN(Cc2ccc(NC(=O)c3ccc(C)c(/C=C/c4cnc5[nH]ccc5c4OC)c3)cc2C(F)(F)F)CC1`?
inhibition [5]: 2.9%; inhibition [6]: 70%; inhibition [7]: 29.8%; inhibition [8]: -7%; percent of control [9]: 100%; inhibition [10]: 0.95%; residual activity [11]: 1.7%; inhibition [12]: 72%; inhibition [13]: 0%; inhibition [14]: 11%; inhibition [15]: 5.8%; inhibition [16]: 4.6%

Which results are given for `CCN1CCN(Cc2ccc(NC(=O)c3ccc(C)c(Oc4ccnc5[nH]ccc45)c3)cc2C(F)(F)F)CC1`?
inhibition [17]: inactive; inhibition [18]: inactive; inhibition [19]: 23%; inhibition [20]: inactive
